Measured values: US5001141A, “N-(2-(2-oxo-1-imidazolidinyl)ethyl)-3-phenyl-urea and analogs as agents for induction of antioxidant enzymes” (E. I. Du Pont de Nemours and Company, priority 1989, dated 1991)

Experiments:
[1] = tested on: superoxide dismutase (SOD); experiment: SOD activity in Gin-1 human gingival fibroblasts; format: cell-based; settings: Gin-1 cells; for SOD % Increase: vs untreated
Experimental: (§1) 1. In vitro Administration of compounds of Examples 1 or 2 (Compound 1 and Compound 2, respectively).
(§2) Two different cell types, human gingival fibroblasts (Gin-1) and bovine aortic endothelial cells (CPA ATCl CCL207) were obtained from the American Type Culture Collection. They were incubated until confluent in Dulbecco's modified Eagles medium, supplemented with 2 mM glutamine and 10% heat-inactivated fetal calf serum at 37° C. in a humidified chamber with 5% CO2 in air. Compounds were dissolved in DMSO, diluted to 100 mM with distilled deionized H2 O, and further diluted with Dulbecco's medium (without fetal bovine serum), to desired concentrations. The usual time of incubation with the compounds of this invention was 24 hr at 37° C. in a humidified incubator with 5% CO2 in air. Lactic dehydrogenase (LDH) release was determined in several in vitro preparations as an index of cytotoxicity. using Sigma Diagnostic Kit #500. LDH release was expressed as a percentage of total LDH activity released from cells treated with 0.4% Triton X [Cabaud, P. G., Wroblewski, F. Am. J. Clin. Pathol. 30:234-236, (1958)].
(§3) Prior to the enzymatic assays the Gin-1 cells and aortic endothelial cells were prepared as follows: cells were rinsed several times with phosphate buffered saline without Ca^+2 or Mg^+2, removed from the culture flasks with 0.25% trypsin, counted using a hemocytometer, and resuspended at 2-3×10^6 cells/ml in Dulbecco's medium without fetal calf serum. Cells were then disrupted by pulse sonication and centrifuged at 100,000 xg at 4° C. Total protein [Bradford, M. M., Anal. Biochem 72:248-254, (1976)] and enzyme activities were determined on the cell sonicates, using standard techniques, SOD activity was determined using the method of McCord and Fridovich [McCord, J., Fridovich I., J. Biol. Chem. 244:6049-6055, (1969)]. Catalase activity was measured using the method of Beers and Sizer [Beers, R. F., Sizer, I. W., J. Biol. Chem. 195:133-146, (1952)]. Glutathione peroxidase activity was determined by the method of Guenzler et al. [Guenzler, W. A., Kremers, H., Flohe, L., Z. Klin. Chem. Klin. Biochem. 12:444-448 (1974)].
(§4) All enzyme activities were expressed as units of activity per mg protein. The data were compared by Student's t test [Snedecor, W. G., Statistical Methods, p. 45, (1964)]. The level of significance was taken as p<0.05.

catalase (CAT) [2] = experiment: Catalase activity in Gin-1 human gingival fibroblasts; format: cell-based; settings: Gin-1 cells; for CAT % Increase: vs untreated
Experimental: as §1, §2, §3, §4

[3] = tested on: glutathione peroxidase (GSH-PX); experiment: Glutathione peroxidase activity in Gin-1 human gingival fibroblasts; format: cell-based; settings: Gin-1 cells
Experimental: as §1, §2, §3, §4

[4] = LDH release from Gin-1 cells as index of cytotoxicity; format: cell-based, human; settings: human, % of total LDH released by 0.4% Triton X, mean ± SEM
Experimental: as §2

Gin-1 cells = experiment: as above; format: cell-based, human
Experimental: as §2

[5] = tested on: superoxide dismutase (SOD); experiment: SOD activity in bovine aortic endothelial cells; format: cell-based; settings: for SOD activity: n = 10, mean ± SEM, * P < 0.05 vs 0 mM
Experimental: as §1, §2, §3, §4

catalase (CAT) [6] = experiment: Catalase activity in bovine aortic endothelial cells; format: cell-based; settings: for CAT activity: n = 6, mean ± SEM
Experimental: as §1, §2, §3, §4

[7] = tested on: glutathione peroxidase (GSH-PX); experiment: Glutathione peroxidase activity in bovine aortic endothelial cells; format: cell-based; settings: for GSH-PX activity: n = 6, mean ± SEM
Experimental: as §1, §2, §3, §4

[8] = tested on: superoxide dismutase (SOD); experiment: SOD activity in rat heart, liver and lung after in vivo treatment
Experimental: Male Lewis rats (250 g) were injected with 0.9% saline (controls) or Compound 1 (100 mg/kg) intraperitoneally twice a day for two days. Heart, liver and lungs were removed en bloc, dissected free of extraneous tissue, and blotted dry to remove contaminating blood. A portion of each tissue (approximately 0.5 g) was homogenized, and centrifuged at 500 xg for 10 minutes at 4° C. A 2 ml aliquot of supernatant was removed and centrifuged at 25,000 xg for 30 minutes. The supernatants were then decanted, and analyzed for SOD and CAT activities and total protein as described above.
as §4

[9] = tested on: polymorphonuclear leukocyte infiltration into ozone-exposed rat lungs; settings: Bassett et al. 1988; cited from earlier work
[10] = tested on: superoxide dismutase (SOD) and catalase (CAT); experiment: Induction of antioxidant enzymes SOD and CAT in mammalian cells and in organs of rats; settings: Gin-1 cells, 1.0 mM, 24 hours; either SOD or CAT, or both enzymes
Experimental: as §1, §2
as §3, with “Cells were then disrupted by pulse sonication and centrifuged at 100,000 xg at 4° C.” left out, “Chem. Klin. Biochem. 12:444-448 (1974)].” left out
All enzyme activities were expressed as units of activity per mg protein. […]

[11] = Compound 2, at one or more concentrations

O=C(NCCN1CCNC1=O)Nc1ccccc1 [Compound 1, 1-[2-(2-oxo-1-imidazolidinyl)ethyl]-3-phenylurea]
SOD activity ([1]; 0.125 mM, n=7, mean ± SEM, * P < 0.05 vs 0 mM): 13.1 ± 1.5 U/mg Protein
SOD activity ([1]; 0.25 mM, n=7, mean ± SEM, * P < 0.05 vs 0 mM): 20.7 ± 3.3 U/mg Protein
SOD activity ([1]; 1.0 mM, n=7, mean ± SEM, * P < 0.05 vs 0 mM): 11.6 ± 1.4 U/mg Protein
SOD activity ([1]; 2.0 mM, n=7, mean ± SEM, * P < 0.05 vs 0 mM): 13.5 ± 1.7 U/mg Protein
SOD activity compared with controls (in words) ([1]; 0.125-2.0 mM Compound 1): significantly increased (P<0.05)
CAT activity (catalase (CAT) [2]; 0.125 mM, n=4, mean ± SEM, * P < 0.05 vs 0 mM): 9.1 ± 1.1 U/mg Protein
CAT activity (catalase (CAT) [2]; 0.25 mM, n=4, mean ± SEM, * P < 0.05 vs 0 mM): 10.0 ± 1.8 U/mg Protein
CAT activity (catalase (CAT) [2]; 1.0 mM, n=4, mean ± SEM, * P < 0.05 vs 0 mM): 11.2 ± 2.0 U/mg Protein
CAT activity (catalase (CAT) [2]; 2.0 mM, n=4, mean ± SEM, * P < 0.05 vs 0 mM): 13.9 ± 1.6 U/mg Protein
CAT activity compared with controls (in words) (catalase (CAT) [2]; 0.125-2.0 mM Compound 1): significantly increased (P<0.05)
GSH-PX activity (in words) [3]: remained constant
GSH-PX activity ([3]; 0.125 mM, n=6, mean ± SEM): 52.1 ± 4.7 U/mg Protein
GSH-PX activity ([3]; 0.25 mM, n=6, mean ± SEM): 45.8 ± 3.5 U/mg Protein
GSH-PX activity ([3]; 1.0 mM, n=6, mean ± SEM): 45.1 ± 5.3 U/mg Protein
GSH-PX activity ([3]; 2.0 mM, n=6, mean ± SEM): 47.8 ± 3.8 U/mg Protein
cytotoxicity at 24 h, 125 µM ([4]; 0.125 mM): 7 ± 2%
cytotoxicity at 24 h, 1000 µM ([4]; 1.0 mM): 8 ± 2%
Cytotoxicity as shown by LDH release (in words) (Gin-1 cells): no indication of cytotoxicity
SOD activity ([5]; 0.05 mM (so in the source)): 9.5 ± 1.8 U/mg Protein
SOD activity ([5]; 0.25 mM): 6.7 ± 0.8 U/mg Protein
SOD activity ([5]; 1.0 mM): 12.2 ± 3.4 U/mg Protein
SOD activity (in words) ([5]; concentration-dependent): significantly increased (P<0.05) in a concentration-dependent manner
CAT activity (catalase (CAT) [6]; 0.05 mM (so in the source)): 27.1 ± 3.3 U/mg Protein
CAT activity (catalase (CAT) [6]; 0.25 mM): 25.7 ± 3.6 U/mg Protein
CAT activity (catalase (CAT) [6]; 1.0 mM, * P < 0.05 vs 0 mM): 31.9 ± 2.4 U/mg Protein
Catalase activity (in words) (catalase (CAT) [6]; highest concentration (1 mM) only): significantly increased at the highest concentration (1 mM) only
GSH-PX activity (in words) [7]: not significantly different
GSH-PX activity ([7]; 0.05 mM (so in the source)): 33.5 ± 3.2 U/mg Protein
GSH-PX activity ([7]; 0.25 mM): 28.1 ± 5.7 U/mg Protein
GSH-PX activity ([7]; 1.0 mM): 59.8 ± 17 U/mg Protein
Tissue SOD Activity, Heart ([8]; rat heart, 100 mg/kg i.p. 2 × /day for 2 days, (8), mean ± SEM, * P < 0.05 vs saline control): 194 ± 14 U/mg Protein
SOD activity in all three tissues (in words) ([8]; rat heart, liver, lung, compared with controls): induced SOD activity in all three tissues studied
Tissue SOD Activity, Liver ([8]; rat liver, 100 mg/kg i.p. 2 × /day for 2 days, (8), mean ± SEM, * P < 0.05 vs saline control): 444 ± 68 U/mg Protein
Tissue SOD Activity, Lung ([8]; rat lung, 100 mg/kg i.p. 2 × /day for 2 days, (8), mean ± SEM, * P < 0.05 vs saline control): 134 ± 7 U/mg Protein
Polymorphonuclear leukocyte infiltration into ozone-exposed rat lungs [9]: decreased polymorphonuclear leukocyte infiltration

O=C(NCCN1CCNC1=O)Nc1ccc(F)cc1 [Compound 2, 1-[2-(2-oxo-1-imidazolidinyl)ethyl]-3-(4-fluorophenyl)urea]
SOD activity ([1]; 0.25 mM, n = 8, mean ± SEM, * P < 0.05 vs 0 mM): 15.2 ± 1.6 U/mg Protein
SOD activity ([1]; 0.50 mM, n = 8, mean ± SEM, * P < 0.05 vs 0 mM): 15.9 ± 1.7 U/mg Protein
SOD activity ([1]; 1.0 mM, n = 8, mean ± SEM, * P < 0.05 vs 0 mM): 14.5 ± 2.2 U/mg Protein
SOD activity (in words) [1, 11]: significantly increased (P<0.05) at one or more concentrations
CAT activity (catalase (CAT) [2]; 0.25 mM, n=6, mean ± SEM): 8.3 ± 0.8 U/mg Protein
CAT activity (catalase (CAT) [2]; 0.50 mM, n = 6, mean ± SEM, * P < 0.05 vs 0 mM): 11.4 ± 1.8 U/mg Protein
CAT activity (catalase (CAT) [2]; 1.0 mM, n=6, mean ± SEM): 9.5 ± 1.4 U/mg Protein
CAT activity (in words) (catalase (CAT) [2]; [11]): significantly increased (P<0.05) at one or more concentrations
GSH-PX activity (in words) [3]: remained constant
GSH-PX activity ([3]; Compound 2 table, 0.25 mM, n = 6, mean ± SEM): 35.0 ± 1.4 U/mg Protein
GSH-PX activity ([3]; Compound 2 table, 0.50 mM, n = 6, mean ± SEM): 40.0 ± 4.7 U/mg Protein
GSH-PX activity ([3]; Compound 2 table, 1.0 mM, n = 6, mean ± SEM): 39.1 ± 4 U/mg Protein

O=C(NCCN1CCNC1=O)Nc1ccc(Cl)cc1 [Example 7]
SOD activity ([1]; 1.0 mM, 24 hours, Table 5): 5.8 ± 1.2 U/mg Protein
SOD % Increase ([1]; 1.0 mM, 24 hours): 51%
CAT activity (catalase (CAT) [2]; 1.0 mM, 24 hours, Table 5): 3.6 ± 0.9 U/mg Protein
CAT % Increase (catalase (CAT) [2]; 1.0 mM, 24 hours): 95%
SOD and/or CAT activity (in words) [10]: increased

O=C(NCCN1CCNC1=S)Nc1ccccc1 [Example 11]
Effect on SOD activity, ranking among Ex. 7, 11, 12 (in words) ([1]; 1.0 mM, 24 hours): least effect on SOD activity
SOD activity ([1]; 1.0 mM, 24 hours, Table 5): 4.0 ± 0.8 U/mg Protein
SOD % Increase ([1]; 1.0 mM, 24 hours): 3%
Effect on CAT activity, ranking among Ex. 7, 11, 12 (in words) (catalase (CAT) [2]; 1.0 mM, 24 hours): affected CAT the most
CAT activity (catalase (CAT) [2]; 1.0 mM, 24 hours, Table 5): 4.1 ± 1.6 U/mg Protein
CAT % Increase (catalase (CAT) [2]; 1.0 mM, 24 hours): 118%
SOD and/or CAT activity (in words) [10]: increased

O=C(Nc1ccccc1)NN1CCCOC1=O [Example 12]
Effect on SOD activity, ranking among Ex. 7, 11, 12 (in words) ([1]; 1.0 mM, 24 hours): greatest effect on SOD
SOD activity ([1]; 1.0 mM, 24 hours, Table 5): 6.5 ± 0.9 U/mg Protein
SOD % Increase ([1]; 1.0 mM, 24 hours): 69%
Effect on CAT activity, ranking among Ex. 7, 11, 12 (in words) (catalase (CAT) [2]; 1.0 mM, 24 hours): least effect on CAT
CAT activity (catalase (CAT) [2]; 1.0 mM, 24 hours, Table 5): 2.5 ± 0.6 U/mg Protein
CAT % Increase (catalase (CAT) [2]; 1.0 mM, 24 hours): 35%
SOD and/or CAT activity (in words) [10]: increased
